By IC50 is commonly meant the concentration that gives 50% inhibition.

What all share (format): functional, cell-based
The test system of one assay is MDA-MB-468. Put plainly: The compound was tested in vitro for its antitumor activity against human breast cell line MDA-468.
The subject of another assay is HCT-116. Kind of assay: The compound was tested in vitro for its antitumor activity against human colon cancer cell line HCT116.
In a further assay the test system is MCF7. Put plainly: The compound was tested in vitro for its antitumor activity against human breast cell line MCF-7.
Another assay has as its system HT-29. Put plainly: The compound was tested in vitro for its antitumor activity against human colon cancer cell line HT-29.

Bounds are passed on as bounds.

As for `Oc1cccc(-c2nc3ccccc3s2)c1`, the 50% inhibitory concentration (IC50) with MDA-MB-468 was 0.05 µM; in the assay on HCT-116 it was > 100 µM; in the assay on MCF7, 51.8 µM; with HT-29 it was 78.7 µM.

Consider `Oc1ccc(-c2nc3ccccc3s2)cc1`, for which the IC50 with MDA-MB-468 is 0.14 µM; in the assay on HCT-116, > 100 µM; in the assay with MCF7, 53.4 µM; in the assay with HT-29 it was 83.7 µM.

The record behind these values is ChEMBL document CHEMBL1133153, “Antitumour benzothiazoles. Part 10: the synthesis and antitumour activity of benzothiazole substituted quinol derivatives” (Bioorg Med Chem Lett, 2000).
